PMC9466619, “Anti-cancer and immunomodulatory evaluation of new nicotinamide derivatives as potential VEGFR-2 inhibitors and apoptosis inducers: in vitro and in silico studies” (Journal of Enzyme Inhibition and Medicinal Chemistry, 2022)

Key:
[1] = target: T1, human VEGFR-2 (Homo sapiens, UniProt P35968); assay: In vitro VEGFR-2 enzyme inhibition assay (Human VEGFR-2 ELISA kit); format: biochemical
T1 construct: VEGFR-2 in HepG2 cell line; endogenous in cells; host or cells: HepG2
Protocol: (§1) 3- 4.2. Experimental of biological testing
4.2.1. In vitro anti-proliferative activity […]
The tested cell lines were purchased and dropped on the appropriate growth medium. The growth medium was supplemented with […] of streptomycin, 100 units/mL of penicillin and 10% of heat-inactivated fetal bovine serum in a humidified 5% (v/v) CO2 atmosphere at 37 ◦C. […]
(§2) 4.2.2. In vitro VEGFR-2 kinase assay
(§3) The synthesized compounds were estimated for their in vitro inhibition on human VEGFR-2 in HepG2 cell line; using ELISA kit. Firstly, a plate was used for the assay […]
nominated as a standard VEGFR-2 inhibitor. Both standard and samples were added to the wells and incubated overnight at 4 ◦C, then washed. The biotinylated antibody was supplemented and further incubated for 1 h at room temperature. The unreacted, liberated antibody was then washed; followed by addition of HRP-conjugated streptavidin and incubated for 45 min at room temperature. Wells were washed and a TMB substrate solution was added and kept at room temperature for 30 min. Finally, the stop solution was added, and the intensity of the color produced was measured at […]

[2] = tested on: HepG-2; assay: MTT anti-proliferative assay, HepG-2; format: cell-based; details: Homo sapiens, HepG2, HepG-2 hepatocellular carcinoma cells, read-out: Cytotoxicity IC50 HepG-2
Protocol: (§4) MTT procedure[41]^,[42] was applied for the determination of the anti-proliferative activity as described in Supplementary data.
as §1
(§5) 4.2.1. In vitro anti-proliferative activity
(§6) The in vitro antiproliferative activities of the synthesized compounds were evaluated against two human tumor cell lines: hepatocellular carcinoma (HepG2) and breast cancer (MCF-7) using MTT assay protocol The commercially available […]
(§7) The tested cell lines were purchased and dropped on the appropriate growth medium. The growth medium was supplemented with […] of streptomycin, 100 units/mL of penicillin and 10% of heat-inactivated fetal bovine serum in a humidified 5% (v/v) CO2 atmosphere at 37 ◦C.
(§8) Then the cells from the two cancer cell lines were seeded at the appropriate densities into 96-well microtiter plates. After incubation for 24 h, the growth medium of each cell was treated with graded concentrations (0.1, 10, 100 and 1000 μM) of the test compounds and incubated for three days. The viability of treated cells was determined using 3-[4,5-dimethylthiazole-2-yl]- 2,5-diphenyltetrazolium bromide (MTT) technique as cells were stained with 5% MTT solution and allowed to break down the dye into colored-insoluble formazan crystals for 4 h. The formazan crystals were dissolved in acidified isopropanol for 30 min with continuous shaking at room temperature. The colorimetric assay was measured and recorded at absorbance of 570 nm. The cell viability was expressed as percentage of control and the concentration that […]
(§9) 100% viability and group treated with a mixture of toxic compounds as 0% viability.
(IC50) were determined for each compound using Graph Pad Prism version 5 software by plotting of log C against % viability. […]

[3] = tested on: HCT-116; assay: MTT anti-proliferative assay, HCT-116; format: cell-based; details: Homo sapiens, HCT-116 colorectal cancer cells, read-out: Cytotoxicity IC50 HCT-116
Protocol: [Worded in the source for another cell line; this cell line is reported under the same test.] as §4, §1, §5, §6, §7, §8, §9
(IC50) were determined for each compound using Graph Pad Prism version 5 software by plotting of log C against % viability.
as §2, §3
nominated as a standard VEGFR-2 inhibitor. Both standard and samples were added to the wells and incubated overnight at 4 ◦C, then washed. The biotinylated antibody was supplemented and further incubated for 1 h at room temperature. The unreacted, […]

[4] = tested on: HCT-116 cells; assay: Cell cycle analysis by PI staining and flow cytometry; format: cell-based, human; details: 48 h
Protocol: Numerous anti-proliferative agents produce their effect by either arresting the cell growth at a particular point of the cell cycle or the induction of apoptosis, or by a combined effect. Taking compound 7 as a representative example of the tested compounds, its effect on the cell-cycle arrest of the HCT-116 cells for 48 h was evaluated by flow cytometry assay using the untreated HCT-116 as a control.
Cell cycle analysis was performed using propidium iodide (PI) staining and flow cytometry analysis for compound 7 as described in Supplementary data[44]^,[45]. […]
5% CO2. Cells were washed twice with phosphate buffer saline, then the centrifugation of cell pellets had been completed, followed by preservation with ice-cold 70% ethanol for 15 min. Pellets were collected again and incubated with propidium iodide (PI) staining solution. After incubation for one hour at room temperature, it was analyzed by flowcytometry on an FC500 cytometer (Beckman Coulter) and the cell cycle distributions were calculated. […]

[5] = tested on: HCT-116 cells; assay: Apoptosis assay, FITC-Annexin V/PI flow cytometry; format: cell-based, human; details: 15.70 μM, 48 h
Protocol: To determine whether apoptosis induction is involved in the anti-proliferative effects of the synthesised compounds, the apoptosis assay was performed for compound 7 against HCT-116 cells. The cells were incubated with either vehicle or compound 7 at a concentration of 15.70 μM for 48 h and then stained with FITC-Annexin V and propidium iodide (PI). The percentages of apoptotic HCT-116 cells were determined by flow cytometry analysis.
Flow cytometry cell apoptosis analysis was used to investigate the apoptotic effect of compound 7 as described in Supplementary data[46]^,[47]. […]
4.2.4. Flow cytometry analysis for apoptosis
Flow cytometry cell apoptosis analysis was used to investigate the apoptotic […]
AnnexinV-fluorescein isothiocyanate (Annexin V-FITC) is a protein that has high affinity to phosphatidyl serine PS, which can be detected by staining with Annexin V-(FITC) and counter staining with propidium iodide (PI). In such procedure, HepG2 cells were incubated together with the tested compound […] for 24 h. Then, the cells were centrifuged, collected by trypsin, washed with PBS two successive times, and suspended in […] of binding buffer. The double staining Annexin V-FITC […] were added to the cells and incubated in the dark for 5 min at room temperature. The stained cells were analyzed for flow cytometry using FACS caliber flow cytometer and apoptosis detection kit (BD Biosciences, San Jose, CA)

[6] = tested on: TNF-α; assay: qRT-PCR level of TNF-α in HCT-116 cells; format: cell-based, human; details: 24 h, compound 7 at 15.70 µM, compound 10 at […]
Protocol: (§10) Dexamethasone as a universal immunomodulatory drug was used as a reference molecule.
(§11) The effect of compounds 7 and 10 on the expression of TNF-α and IL-6 were determined using qRT-PCR as described in Supplementary data[48–50].
(§12) 4.2.5. Quantitative Real Time Reverse-Transcriptase PCR technique
(§13) The quantity of immunomodulatory proteins (TNF-α and IL-6) in control and compounds 7, 10 (at the IC50 concentration)-treated HepG2 cells was as sessed by qRT-PCR (reference). Total RNA from vehicle -treated control (0.01% DMSO) and […] HepG2 cells were extracted as -per the manufacturer instructi ons (RNeasy mini kit, Qiagen, Germany). After RNA extraction, cDNA was prepared using the Revert Aid First Strand cDNA Synthesis kit (Thermo Scientific, USA). Amplification of target cDNA for apoptosis markers and GAPDH [as a normalization (housekeeping) gene] was done using one-step RT-PCR SYBR® Green kit Master Mix (Bio‐Rad
(§14) Laboratories, USA) on Rotor -Gene Q real-time PCR thermal cycler instrument. cDNA (2 μl aliquots) was mixed with 1 μl of forward primer, 1 μl re verse primer, 10 μl master mixture, and the reaction volume was completed to 20 μl with nuclease -free water. All experiments were performed in tri plicates
(§15) 4- 4.3. Experimental of in silico studies

[7] = tested on: IL-6; assay: qRT-PCR level of IL-6 in HCT-116 cells; format: cell-based, human; details: 24 h, compound 7 at 15.70 µM, compound 10 at […]
Protocol: as §10, §11, §12, §13, §14, §15

T1 sequence (P35968 20-1356): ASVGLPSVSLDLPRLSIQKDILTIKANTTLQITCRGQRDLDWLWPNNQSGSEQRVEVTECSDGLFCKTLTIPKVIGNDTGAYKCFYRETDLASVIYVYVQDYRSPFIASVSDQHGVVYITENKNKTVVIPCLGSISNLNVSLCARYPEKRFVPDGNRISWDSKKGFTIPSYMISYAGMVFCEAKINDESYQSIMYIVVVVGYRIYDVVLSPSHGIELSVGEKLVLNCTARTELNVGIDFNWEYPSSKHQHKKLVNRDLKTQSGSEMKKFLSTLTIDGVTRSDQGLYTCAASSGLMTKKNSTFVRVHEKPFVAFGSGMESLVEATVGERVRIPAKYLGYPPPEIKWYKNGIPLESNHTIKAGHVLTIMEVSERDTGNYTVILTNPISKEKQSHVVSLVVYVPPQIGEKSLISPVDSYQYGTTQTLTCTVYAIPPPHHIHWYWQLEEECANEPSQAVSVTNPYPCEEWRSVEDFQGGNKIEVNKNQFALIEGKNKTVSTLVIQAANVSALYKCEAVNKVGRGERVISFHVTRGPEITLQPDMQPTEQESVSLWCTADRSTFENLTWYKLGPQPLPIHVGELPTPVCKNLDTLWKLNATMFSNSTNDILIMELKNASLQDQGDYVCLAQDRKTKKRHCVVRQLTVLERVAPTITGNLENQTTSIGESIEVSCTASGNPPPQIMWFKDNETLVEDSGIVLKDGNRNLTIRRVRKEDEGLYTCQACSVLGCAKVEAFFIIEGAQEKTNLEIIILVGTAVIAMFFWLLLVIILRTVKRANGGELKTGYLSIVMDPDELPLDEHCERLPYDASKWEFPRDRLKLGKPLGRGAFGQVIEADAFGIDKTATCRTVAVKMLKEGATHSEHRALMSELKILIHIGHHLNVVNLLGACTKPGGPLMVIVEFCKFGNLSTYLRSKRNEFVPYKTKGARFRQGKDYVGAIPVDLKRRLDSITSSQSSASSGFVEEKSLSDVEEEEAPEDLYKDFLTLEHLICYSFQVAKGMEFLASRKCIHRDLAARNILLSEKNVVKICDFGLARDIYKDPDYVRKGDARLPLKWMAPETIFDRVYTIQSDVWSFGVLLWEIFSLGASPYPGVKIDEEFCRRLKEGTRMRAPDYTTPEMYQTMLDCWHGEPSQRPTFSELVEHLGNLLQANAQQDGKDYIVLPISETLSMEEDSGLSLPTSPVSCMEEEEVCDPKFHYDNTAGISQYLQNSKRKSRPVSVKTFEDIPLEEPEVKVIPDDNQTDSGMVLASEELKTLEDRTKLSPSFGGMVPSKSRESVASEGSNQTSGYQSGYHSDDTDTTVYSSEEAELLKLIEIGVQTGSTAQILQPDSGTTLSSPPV

O=C(N/N=C/c1cccc([N+](=O)[O-])c1)c1ccc(NC(=O)c2cccnc2)cc1 [Compound 6, (E)-N-(4–(2-(3-Nitrobenzylidene)hydrazine-1-carbonyl)phenyl)nicotinamide]
IC50 [1]: 0.292 µM
IC50 [2]: 19.5 ± 0.063 µM
IC50 [3]: 22.09 ± 0.064 µM

COc1cc(/C=N/NC(=O)c2ccc(NC(=O)c3cccnc3)cc2)cc(OC)c1OC [Compound 7, (E)-N-(4–(2-(3,4,5-Trimethoxybenzylidene)hydrazine-1-carbonyl)phenyl) nicotinamide]
Cell cycle distribution (%) % S [4]: 26.92%
Cell cycle distribution (%) %G0-G1 [4]: 41.92%
Cell cycle distribution (%) %G2-M [4]: 31.16%
Cell cycle distribution (%) %Pre-G1 [4]: 15.74%
IC50 [1]: 0.25 µM
IC50 [2]: 15.5 ± 0.055 µM
IC50 [3]: 15.7 ± 0.058 µM
Apoptosis Early [5]: 2.75%
Apoptosis Late [5]: 11.26%
Apoptosis Total [5]: 15.74%
Increase in early-phase apoptotic cells versus control [5]: 4 fold
Increase in late-phase apoptotic cells versus control [5]: 6.5 folds
Necrosis [5]: 1.73%
Total apoptosis induction versus control [5]: 5 folds

C/C(=N\NC(=O)c1ccccc1Cl)c1ccc(NC(=O)c2cccnc2)cc1 [Compound 10]
IC50 [1]: 0.145 µM

CC(=O)Nc1ccc(C(=O)N/N=C(\C)c2ccc(NC(=O)c3cccnc3)cc2)cc1 [Compound 11, (E)-N-(4–(1-(2–(4-Acetamidobenzoyl)hydrazono)ethyl)phenyl)nicotinamide]
IC50 [1]: 0.0866 µM
IC50 [2]: 21.6 ± 0.07 µM
IC50 [3]: 20.17 ± 0.063 µM

C[C@@H]1C[C@H]2[C@@H]3CCC4=CC(=O)C=C[C@]4(C)[C@@]3(F)[C@@H](O)C[C@]2(C)[C@@]1(O)C(=O)CO [Dexamethasone, reference compound]
TNF-α (% inhibition) [6]: 82.47%
TNF-α (% inhibition) ([6]; listed as dexamethasone): 82.4%
IL-6 (% inhibition) [7]: 93.15%
IL-6 (% inhibition) ([7]; listed as dexamethasone): 93.1%

CNC(=O)c1cc(Oc2ccc(NC(=O)Nc3ccc(Cl)c(C(F)(F)F)c3)cc2)ccn1 [Sorafenib, reference compound]
IC50 [2]: 7.4 ± 0.253 µM
IC50 [3]: 9.3 ± 0.201 µM
